Source: patent publication US20130023555A1, “KINASE INHIBITOR WITH IMPROVED SOLUBILITY PROFILE” (Abbott Laboratories, priority 2011, published 2013)

Biological target: T1, CYP3A4 (Homo sapiens, UniProt P08684)
T1 construct: The incubations consisted of human liver microsomal protein at 0.4 mg/ml; from tissue; host or cells: human liver microsomes
Assay: CYP 3A4 Assay (Luc, luminescence, human liver microsomes)
Format: in vitro ADME
Conditions: human liver microsomes 0.4 mg/mL, substrate LUC-LIPA
Description: Each assay was preformed in ½ well plates. Test compounds were examined at six concentrations in DMSO that were serial diluted to: 2, 0.6, 0.2, 0.07, 0.02, and 0.007 mM (from left to right) and at 100×; 0.5 ul of these dilutions were added to two empty assay plates (resulting in final assay concentrations of 20, 6, 2, 0.7, 0.2, and 0.07 uM. The control and vehicle were added to the plate at 100× with the same dilution scheme.
The incubations consisted of human liver microsomal protein at 0.4 mg/ml in 100 mM KPO4 buffer, 125 uM NADPH and Regeneration mix in phosphate buffer at pH 7.4.
CYP3A4 requires a pre-incubation using the following recipe:
• CYP3A4—5 μM LUC-LIPA in 100 mM phosphate buffer pH 7.4 • Assay Procedure for CYP3A4: • 1. 40 uL of the Pre-incubation Mixture was added to all wells of the assay plates. • 2. Plates were pre-incubated for 10 minutes at 37° C., with shaking or rocking. (No pre-read is necessary for the luminescence assays CYP2C9 and CYP3A4). • 3. 10 μL of Substrate Solution was added to all wells of the assay plates. • 4. Plates were incubated for an additional 25 minutes at 37° C., with shaking or rocking. • 5. added 50 μl of stop/developer from respective kits, and incubated for 20 minutes to 2 hours with shaking at room temperature prior to reading. […]

T1 sequence (P08684 whole entry): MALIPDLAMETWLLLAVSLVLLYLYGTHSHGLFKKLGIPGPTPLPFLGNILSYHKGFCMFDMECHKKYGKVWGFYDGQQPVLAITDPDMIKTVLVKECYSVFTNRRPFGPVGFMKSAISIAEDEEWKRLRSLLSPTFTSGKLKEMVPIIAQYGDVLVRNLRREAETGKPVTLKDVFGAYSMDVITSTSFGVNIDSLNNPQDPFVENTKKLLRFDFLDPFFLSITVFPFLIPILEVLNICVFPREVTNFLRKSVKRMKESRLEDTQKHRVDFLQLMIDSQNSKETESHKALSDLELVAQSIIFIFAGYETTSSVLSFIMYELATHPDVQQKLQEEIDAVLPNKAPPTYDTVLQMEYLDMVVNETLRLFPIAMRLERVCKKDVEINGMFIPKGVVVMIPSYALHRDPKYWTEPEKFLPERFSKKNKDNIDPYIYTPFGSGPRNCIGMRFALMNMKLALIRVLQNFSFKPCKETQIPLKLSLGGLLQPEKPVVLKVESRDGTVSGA

- IC50: > 20 µM
SMILES: CNC(=O)c1cnc(N)c2c(-c3ccc(NC(=O)Nc4cccc(C)c4)cc3)csc12 [Example 2, 4-amino-N-methyl-3-(4-{[(3-methylphenyl)carbamoyl]amino}phenyl)thieno[3,2-c]pyridine-7-carboxamide]
